In patent US12655114B2, “Ionizable lipid compounds and lipid nanoparticle compositions” (SunVax mRNA Therapeutics Inc., priority 2022, dated 2026):

Columns and labels:
293T cells = test: GFP expression in 293T cells treated with LNP-SamRNA-GFP (formulation optimization, FACS); format: cell-based; settings: LNPs with self-amplifying mRNA encoding GFP, FIG. 22
Description: (§1) The LNPs containing SamRNA-GFP (or SamRNA-LUC, 100 ng/well) were added into 96-well plate which was pre-seeded with 293T, C2C12 or MC38 cells. After 24 hours incubation at 37° C. and 5% CO2, the luciferase SamRNA transfection efficiency was measured by plate reader (Perkin Elmer Envision 2104). The GFP SamRNA transfection efficiency was measured by flow cytometry (BD FACSymphony™ A5 SE Cell Analyzer).
An orthogonal experimental design was applied to optimize the formulation of synthesized ionizable lipids, DOPE, Chol and DMG-PEG2000 that encapsulated samRNA-GFP. Library A contained 16 formulations with four factors and four levels.
In Library A, the 293T cells were treated in different amounts of LNPs ([…] of SamRNA-GFP). The delivery efficiency of LNPs-SamRNA-GFP of A-6, A-9, A-10, A-13 show more than 60% GFP expression when the 293T cells were transfected with 50, 25 and 12.5 ng of mRNA (FIG. 14). The samRNA-GFP delivery efficiency increased with the molar ratios of Chol and DOPE increase, while increased the molar ratios of P6A2 and DMG-PEG2000 reduced the samRNA-GFP delivery efficiency (FIG. 15).
A second orthogonal experimental design was applied to optimize the formulation of LNPs. In Library B, the 293T cells were treated with 50 or 12.5 ng of samRNA-GFP (FIG. 16).

[1] = system: 293T, C2C12 or MC38 cells; test: SamRNA-GFP transfection efficiency of LNPs by flow cytometry; format: cell-based; settings: LNP-SamRNA-GFP formulated with the lipid; FIGS. 4-6, 8-10
Description: The delivery system used to deliver the GFP-mRNA transfect are LNPs formulated using 12 individual ionizable lipids synthesized by three-component reactions. To generate the LNP encapsulated self-amplifying mRNA, the ionizable lipids of the present disclosure were dissolved in ethanol and directly added into an ethanol solution containing DOPE, cholesterol and DMG-PEG2000 at predetermined molar ratio. Self-amplifying mRNA encoding GFP sequences aqueous solution was mixed and the LNP mixture (100 ng mRNA) was added to a 96-well plate pre-seeded with MC38, C2C12 or 293T cells. The cells were incubated at 5% CO2 and 37° C. overnight. The GFP mRNA transfection efficiency was measured by flow cytometry.
E6, an ionizable lipid of the disclosure, was formulated into LNPs with 1,2-Dioleoyl-sn-glycero-3-phosphoethanolamine (DOPE), cholesterol (Chol), methoxypolyethylene glycol (DMG-PEG2000) with a mole ratio of 50/10/38.5/1.5 (ionizable lipid/DOPE/Chol/DMG-PEG2000) encapsulated self-amplifying mRNA or DNA encoding with reporter genes either green fluorescent protein (samRNA-GFP or DNA-CMV-EGFP) or firefly Luciferase (samRNA-LUC). Formulations containing 100 ng of self-amplifying mRNA were incubated to a well of 96-well plate with 60-70% confluent of HEK293, or C2C12, or MC38 cells (FIGS. 10, 23). The transfection efficiency was determined by flow cytometry for detection of GFP, or plate reader for detection of luciferase. LNP formulated using FDA approved ionizable lipid MC3 was used as a control (FIG. 10).
as §1

Compound | delivery efficacies compared with FDA approved ionizable lipid MC3 (293T cells) | delivery of mRNA-GFP compared with FDA approved ionizable lipid MC3 [1]
CCCCCCCCCCCCC(CCCCCCCCCC)CNCCC(=O)OC1CC(OC(=O)CCNCC(CCCCCCCCCC)CCCCCCCCCCCC)CC(OC(=O)CCNCC(CCCCCCCCCC)CCCCCCCCCCCC)C1 (centres unmarked) [P7] | better delivery efficacies than FDA approved ionizable lipid MC3 | –
CCCCCCCCCCCCCCN(CCCCCCCCCCCCCC)CCC(=O)OC1CC(OC(=O)CCN(CCCCCCCCCCCCCC)CCCCCCCCCCCCCC)CC(OC(=O)CCN(CCCCCCCCCCCCCC)CCCCCCCCCCCCCC)C1 (centres unmarked) [T7] | better delivery efficacies than FDA approved ionizable lipid MC3 | –
CCCCCCCCCCCCCN(CCCCCCCCCCCCC)C(c1ccc(CCCCCCCCCCCC)cc1)c1ccccc1O (centres unmarked) [TP3F11, 2-((ditridecylamino)(4-dodecylphenyl)methyl)phenol] | – | more effectively deliver mRNA-GFP
CCCCCCCCCCCCCCN(CCCCCCCCCCCCCC)C(c1ccc(CCCCCCCCCCCC)cc1)c1ccccc1O (centres unmarked) [TP3G11, 2-((ditetradecylamino)(4-dodecylphenyl)methyl)phenol] | – | more effectively deliver mRNA-GFP
CCCCCCCCCCCCCCN(CCCCCCCCCCCCCC)C(c1cccs1)c1ccccc1O (centres unmarked) [TP4G11, 2-((ditetradecylamino)(thiophen-2-yl)methyl)phenol] | – | more effectively deliver mRNA-GFP
